Data taken from patent publication US11986459B2, “Methods for the treatment of Mycobacterium infections” (University of South Florida, priority 2020, dated 2024).
In brackets after ≈: the same amount, converted by molar mass. Read-outs that look alike come from different tables or passages of the source.

Columns and labels:
α-glucosidase = conditions: literature ref 12; read-out: α-glucosidase inhibition activity IC50; cited from earlier work
[1] = system: replicating stage M. tuberculosis (Mtb); assay: MIC against replicating Mtb; format: cell-based, Mycobacterium tuberculosis; conditions: for MIC: Mycobacterium tuberculosis
M. abscessus (Mab) = M. abscessus (Mab) inhibition; format: cell-based, Mycobacterium abscessus; conditions: Table 10; pure compounds
[2] = target: acetylcholinesterase (AchE) (Homo sapiens, UniProt P22303); conditions: literature ref 13; read-out: IC50 against acetylcholinesterase (AchE); cited from earlier work
acetylcholinesterase (AchE), sequence (P22303 32-614): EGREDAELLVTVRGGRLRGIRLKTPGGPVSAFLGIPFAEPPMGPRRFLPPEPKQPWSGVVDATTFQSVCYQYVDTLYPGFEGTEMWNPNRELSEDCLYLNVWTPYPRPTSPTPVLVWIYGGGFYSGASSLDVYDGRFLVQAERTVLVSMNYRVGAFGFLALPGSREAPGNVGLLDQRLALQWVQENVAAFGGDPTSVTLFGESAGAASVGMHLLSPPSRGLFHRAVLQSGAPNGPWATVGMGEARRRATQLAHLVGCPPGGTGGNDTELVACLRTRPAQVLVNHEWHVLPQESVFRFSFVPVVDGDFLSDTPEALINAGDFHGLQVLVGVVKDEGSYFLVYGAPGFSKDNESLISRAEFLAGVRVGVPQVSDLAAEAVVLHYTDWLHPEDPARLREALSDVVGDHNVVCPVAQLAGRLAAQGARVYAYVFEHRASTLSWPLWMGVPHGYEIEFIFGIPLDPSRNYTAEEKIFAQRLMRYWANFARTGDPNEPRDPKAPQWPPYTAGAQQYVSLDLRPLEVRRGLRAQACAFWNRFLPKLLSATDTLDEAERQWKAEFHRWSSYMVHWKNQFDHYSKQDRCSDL

[3] = system: murine macrophage cell line J774; assay: Cytotoxicity assay with J774 macrophages; conditions: for IC50: Mus musculus
zebrafish embryos = conditions: reported in literature; cited from earlier work
S. pyogenes = conditions: reported in literature; cited from earlier work
S. typhimurium = conditions: reported in literature; cited from earlier work
MRSA = conditions: literature ref 20; cited from earlier work
E. co/i = conditions: reported in literature; cited from earlier work
S. aureus = conditions: reported in literature; cited from earlier work
C. albicans = conditions: reported in literature; cited from earlier work
[4] = Table 10, pure compounds, replicating Mtb, read-out: MIC (Mtb-rep)

SMILES: C[C@@H]1CC(=O)CCCCCc2cc(O)cc(O)c2C(=O)O1 [(3R)-5-oxo-de-O-methyllasiodiplodin]
- IC50 (α-glucosidase): 54.6 µM

SMILES: COc1cc2c(c(O)c1C)COC2=O [EtOAc-F-8-3, 4-hydroxy-6-methoxy-5-methyl-1(3H)-isobenzofuranone]
- MIC [1, 4]: 200 µg/mL (≈ 1030 µM)
- M. abscessus (M. abscessus (Mab)): 200 µg/mL

SMILES: COc1ccc(-c2cc3c(c(=O)o2)C[C@]2(O)[C@@]4(C)CCC(=O)C(C)(C)[C@]4(O)CC[C@@]2(C)O3)cc1 [terreulactone C]
- IC50 [2]: 0.028 µM

SMILES: CC[C@H](C)/C=C(C)/C=C/C(=O)Cc1cc(O)c(C)c(O)c1C=O [EtOAc-D, 2,4-dihyroxy-6-(5,7-dimethyl-2-oxo-trans-3-trans-5-nonadienyl)-3-methylbenzaldehyde]
- IC50 ([3]; J774, read-out: IC50 (J774)): ~200 µg/mL (≈ 632 µM)
- MIC ([1]; read-out: MIC (Mtb-rep)): ~50 µg/mL (≈ 158 µM)
- effect on exposed zebrafish embryos (zebrafish embryos): severely impaired heart morphology and curved trunk

SMILES: C[C@@H]1CCC[C@H](O)CCCc2cc(O)cc(O)c2C(=O)O1 [(3R,7R)-7-hydroxy-de-O-methyllasiodiplodin]
- IC50 (α-glucosidase): 25.8 µM

SMILES: CC[C@H](C)/C=C(C)/C=C/C1=CC2=C(Cl)C(=O)[C@](C)(OC(C)=O)C(=O)C2=CN1CCO [EtOAc-O-7, Isochromophilone VI]
- IC50 ([3]; J774): 200 µg/mL (≈ 461 µM)
- IC50 ([3]; J774, read-out: IC50 (J774)): ~200 µg/mL (≈ 461 µM)
- cytotoxicity (in words) ([3]; conclusion b210, J774): low cytotoxicity
- selectivity index (SI) ([1]; IC50 (J774) over MIC (Mtb)): 10.78
- MIC [1, 4]: 18.6 µg/mL (≈ 42.9 µM)
- MIC ([1]; text b208, FIG. 11, replicating Mtb, read-out: MIC): 18 µg/mL (≈ 41.5 µM)
- bioactivity against replicating Mtb (in words) ([1]; conclusion b210): promising bioactivity
- activity against S. pyogenes (S. pyogenes): bioactivity
- activity against S. typhimurium (S. typhimurium): bioactivity

SMILES: CCC(C)/C=C(C)/C=C/C1=CC2=C(Cl)C(=O)C(C)(OC(C)=O)C(=O)C2=CN1CCCC(=O)O (stereo not drawn) [Isochromophione IX, isochromophilone IX]
- MIC, inhibition against MRSA (MRSA): 50 µg/mL (≈ 105 µM)

SMILES: COc1cc(CC(=O)CO)c(C=O)c(O)c1C [EtOAc-M-6-3]
- MIC [1, 4]: 50 µg/mL (≈ 210 µM)
- M. abscessus (M. abscessus (Mab)): 100 µg/mL

SMILES: C/C=C(/C(=O)O)N1C(=O)C=C(C)C1=O [EtOAc-G-4, pencolide]
- MIC [1, 4]: 50 µg/mL (≈ 256 µM)
- inhibition of E. co/i (E. co/i): inhibition
- activity against S. pyogenes (S. pyogenes): inhibition
- inhibition of S. aureus (S. aureus): inhibition
- activity against S. typhimurium (S. typhimurium): inhibition
- inhibition of C. albicans (C. albicans): inhibition
- M. abscessus (M. abscessus (Mab)): 100 µg/mL
